“And” between values parts separate entries of the source, which are not always exact repeats. Equal entries are not always repeated.
Assays:
Assay type in all cases: cell-based, mouse
[1] = test system: Th9 cells; test: IL-9+ Th9 cells with oleic acid (S8I-J); conditions: OA 50 μM
Excerpt: LXR-α binding site ChREBP binding site USF1 binding site […] 2.1 1.8 2.1 […] 1.9 […] 20 20 0 […] + OA ✱✱✱✱ MIGR1 M Ctrl + OAEpA […] SREBP1 Ctrl SREBP1EpA ✱✱✱✱ ✱✱✱ 3 2 1 0 TNF-α MIGR1 SREBP1 […] SREBP1EpA Figure S8. EpA-associated modulation of lipid metabolism and its impact on Figure S8 Th9 cell function. (A-C) GSEA of RNA-seq data showing intracellular sterol transport (A), sterol transfer activity (B), and long-chain fatty acid transport (C) pathways in control and EpA-treated Th9 cells. […] (K and L) Flow-cytometric analysis of IL-9 expression in Th9 cells transduced with either control (MIGR1) or SREBP1- […]

[2] = test system: mitochondria of Th9 cells; test: Flow cytometry with MitoTracker Deep Red (Figure 4M, 5L, 7F, 7J); conditions: Figure 5L, single agent, individual replicates, (n = 3)
Protocol: […] Cells were incubated with the respective dyes, washed, and subjected to flow cytometry or fluorescence microscopy analysis. For ultrastructural assessment, mitochondrial number and diameter were quantified from high-resolution transmission electron microscopy (TEM) images using ImageJ software.

[3] = test system: Th9 cells; test: IL-9+ Th9 cells with MEK or ERK inhibition (Figure 5H); conditions: for IL-9 (flow cytometric quantification): Figure 5H, single agent, individual replicates, (n = 5); for IL-9 production: trametinib 10 nM, temuterkib 100 nM, result in words
Protocol: (A) Identification and ranking of EpA-interacting proteins by affinity pulldown and LC-MS/MS, ordered by in silico binding energy predictions. […] (E) Flow-cytometric analysis of phosphorylated ZAP70 in Th9 cells 10 minutes after TCR activation (mean ± SEM, n = 3). (F) Pathway enrichment analysis of RNA-seq data showing MAPK/ERK-related pathways in EpA-treated Th9 cells. (G) Immunoblot analysis of total and phosphorylated MEK1/2 and ERK1/2 in control and EpA-treated Th9 cells. (H–L) Functional consequences of MEK or ERK inhibition in EpA-treated Th9 cells. […] Data in H–K are shown as mean ± SEM (n = 5) and in L as mean ± SEM (n = 3). Statistical significance was determined using 1-way ANOVA followed by Tukey’s test (E, H–L). *P < 0.05, **P < 0.01, ***P < 0.001, ****P < 0.0001.
(§1) T cell polarization was initiated under plate-bound anti-CD3 (2 μg/mL, clone 17A2, BioXCell, catalog BE0002) and soluble anti-CD28 (1 μg/mL, clone 37.51, BioXCell, catalog BE0015-1) stimulation, with the addition of cytokines and neutralizing antibodies specific to each subset. For Th9 cells, these included IL-4 (10 ng/mL, Peprotech, catalog 400-04), TGF-β (1 ng/mL, EPOTO Biotech, catalog HF-2021), anti–IL-12 (5 μg/mL, clone C17.8, BioXCell, catalog BE0051), and anti–IFN-γ (10 μg/mL, clone XMG1.2, BioXCell, catalog BE0055); for Th1 cells, these included IL-12 (10 ng/mL, GenScript, catalog Z03211-50) and anti–IL-4 (5 μg/mL, clone 11B11, BioXCell, catalog BE0045); for Th2 cells, these included IL-4 (50 ng/mL), anti–IFN-γ (20 μg /mL), anti–IL-12 (5 μg/mL), Th17 cells: IL-6 (20 ng/mL, EPOTO Biotech, catalog MF-1006), TGF-β (1 ng/mL), IL-1β (10 ng/mL, Peprotech, catalog AF-211-11B), anti–IFN-γ (10 μg/mL), anti–IL-12 (5 μg/mL), and anti–IL-4 (5 μg/mL); and for Tregs, these included TGF-β (3 ng/mL). After 3 days of initial culture, cells were either collected for downstream assays or continued in extended culture with refreshed cytokines to maintain lineage commitment.
The following pharmacological inhibitors were used at the indicated final concentrations: trametinib (MEK1/2 inhibitor; Selleck, catalog S4484) at 10 nM; temuterkib (ERK1/2 inhibitor; MCE, catalog HY-101494) at 100 nM; and fatostatin hydrobromide (SREBP inhibitor; MCE, catalog HY-14452A) at 5 μM. Dead cells were detected using Fixable Viability Dye eFluor 780 (eBioscience, catalog 65-0865).

[4] = test system: TNF-α in Th9 cells; test: Flow cytometry of TNF-α in Th9 cells in vitro (Figure 3F, 5I, 7C, S8M-N); conditions: for TNF (flow cytometric quantification): Figure 5I, single agent, individual replicates, (n = 5); for TNF-α expression: MEK/ERK blockade, even with EpA, result in words
Protocol: (§2) Naive CD4^+ T cells were isolated from the spleens of C57BL/6J or CD45.1^+ OT-II mice using the MojoSort Mouse CD4 Naive T Cell Isolation Kit (BioLegend, catalog 480040), following the manufacturer’s protocol. Purified cells were cultured in RPMI-1640 medium supplemented with 10% FBS, 1% penicillin-streptomycin, and 0.1% β-mercaptoethanol (Gibco, catalog 21985023).
as §1
(§3) Details regarding staining panels (human and mouse), reagents (including clones and catalog numbers), acquisition settings, compensation/controls, and analysis procedures are provided in Supplemental Methods.
(§4) BioLegend, Cat. No. 422301 or Mouse TruStain FcX™, BioLegend, Cat. No. 101319) for 10 minutes at 4°C. For surface marker detection, cells were stained with fluorochrome-conjugated monoclonal antibodies in 96-well V-bottom plates and incubated on ice for 30 minutes. After staining, cells were washed twice and resuspended in FACS buffer for analysis.
(§5) Prior to intracellular cytokine staining, cells were restimulated for 4 hours with PMA (Absin, Cat. No. abs9107), ionomycin (Sigma-Aldrich, Cat. No. I0634), and brefeldin A (MedChemExpress, Cat. No. HY-16592). For intracellular cytokine staining, cells were first surface-stained as described above, then fixed and permeabilized using the BD Cytofix/Cytoperm™ kit (BD Biosciences, Cat. No. 554714) according to the manufacturer ’s protocol. Intracellular proteins were stained with directly conjugated antibodies targeting IL-9, IL-17a, IL-4, IFN-γ, TNF-α, FOXP3, p-ZAP70, Perforin, and […]
(§6) Antibodies used for mouse samples included those against IL-9 (PE, clone RM9A4, Biolegend, Cat. No. 514104), IFN-γ (PE, clone XMG1.2, Biolegend, Cat. No.
(§7) Cat. No. 103138), CD4 (APC/Cy7, clone E-AB-F1353UJ, Elabscience, Cat. No.
(§8) AF18028), CD8α (PerCP/Cy5.5, clone E-AB-F1104UJ, Elabscience, Cat. No. […]
(§9) clone E-AB-F1187UH, Elabscience, Cat. No. AF19854), TNF-α (BV421, clone MP6-XT22, Biolegend, Cat. No. 506328), FOXP3 (PE, clone FJK-16s, eBioscience, Cat. No.
(§10) Perforin (APC, clone S16009A, Biolegend, Cat. No. 154303) and Granzyme B (APC, […]
(§11) clone QA16A02, Biolegend, Cat. No. 372203). […]

[5] = test system: PD-1 on Th9 cells; test: Flow cytometry of PD-1 on Th9 cells in vitro (Figure 5K, 7E, S3D); conditions: for PD1 (flow cytometric quantification): Figure 5K, single agent, individual replicates, (n = 5); for PD-1 expression: MEK/ERK blockade, even with EpA, result in words
Protocol: as §2, §1, §3, §4, §5, §6, §7, §8, §9, §10, §11

[6] = test system: CD69 on Th9 cells; test: Flow cytometry of CD69 on Th9 cells in vitro (Figure 5J, 7D); conditions: for CD69 (flow cytometric quantification): Figure 5J, single agent, individual replicates, (n = 5); for CD69 expression: MEK/ERK blockade, even with EpA, result in words
Protocol: as §2, §1, §3, §4, §5, §6, §7, §8, §9, §10, §11

Structure (SMILES): CCCCCCCC/C=C\CCCCCCCC(=O)O [oleic acid]
- Th9 polarization with oleic acid ([1]; result in words): antagonizes Th9 polarization
- IL-9 gate number ([1]; representative flow plot, Figure S8I, EpA 10 μM): 0.8

Structure (SMILES): Cn1nccc1Nc1nccc(-c2cc3c(s2)C(C)(C)N(CCN2CCOCC2)C3=O)n1 [temuterkib, reference compound]
- Mito tracker (flow cytometric quantification) ([2]; listed as ERKin): 1115 (2×) and 1113
- IL-9 (flow cytometric quantification) ([3]; listed as ERKin): 0.84 and 0.88 and 0.8 and 0.91 and 1
- IL-9 production [3]: almost completely abrogated IL-9 production
- TNF (flow cytometric quantification) ([4]; listed as ERKin): 1577 and 1578 and 1574 and 1552 and 1651
- TNF-α expression [4]: significantly reduced
- PD1 (flow cytometric quantification) ([5]; listed as ERKin): 218 and 220 and 219 and 229 and 222
- PD-1 expression [5]: significantly reduced
- CD69 (flow cytometric quantification) ([6]; listed as ERKin): 21.9 and 20.8 and 21.6 (2×) and 21.7
- CD69 expression [6]: significantly reduced

Structure (SMILES): CC(=O)Nc1cccc(-n2c(=O)n(C3CC3)c(=O)c3c(Nc4ccc(I)cc4F)n(C)c(=O)c(C)c32)c1 [trametinib, reference compound]
- Mito tracker (flow cytometric quantification) ([2]; listed as MEKin): 942 and 929 and 920
- IL-9 (flow cytometric quantification) ([3]; listed as MEKin): 0.7 and 0.66 and 0.89 and 0.62 and 0.69
- IL-9 production [3]: almost completely abrogated IL-9 production
- TNF (flow cytometric quantification) ([4]; listed as MEKin): 1461 and 1480 and 1452 (2×) and 1443
- TNF-α expression [4]: significantly reduced
- PD1 (flow cytometric quantification) ([5]; listed as MEKin): 177 and 192 and 187 (2×) and 180
- PD-1 expression [5]: significantly reduced
- CD69 (flow cytometric quantification) ([6]; listed as MEKin): 19.1 and 22.5 and 21.5 and 19.6 and 18.9
- CD69 expression [6]: significantly reduced
